In the NIST ThermoML archive (doi:10.1016/j.jct.2013.02.004):
Numbers after ± are expanded uncertainties.

Test: activity coefficient (dimensionless); of the first substance listed, at infinite dilution; xn = mol fraction of the nth substance listed
Conditions: 101 kPa, Liquid, Chromatography, x1 = 0

Compound | activity coefficient (308.15 K) | activity coefficient (318.15 K) | activity coefficient (328.15 K) | activity coefficient (338.15 K) | activity coefficient (348.15 K) | activity coefficient (358.15 K) | activity coefficient (368.15 K)
C#CCCCCC [1-heptyne] + CCCCCC[n+]1ccc2ccccc2c1.N#C[S-] | 4.77 ± 0.33 | 4.85 ± 0.33 | 4.93 ± 0.34 | 5.02 ± 0.34 | 5.09 ± 0.35 | 5.16 ± 0.35 | 5.21 ± 0.36
C1=CCCCC1 [cyclohexene] + CCCCCC[n+]1ccc2ccccc2c1.N#C[S-] | 7.2 ± 0.49 | 6.9 ± 0.47 | 6.6 ± 0.45 | 6.2 ± 0.42 | 5.9 ± 0.4 | 5.7 ± 0.39 | 5.5 ± 0.37
Cc1ccccc1 [toluene] + CCCCCC[n+]1ccc2ccccc2c1.N#C[S-] |  |  | 2.05 ± 0.14 | 2.07 ± 0.14 | 2.08 ± 0.14 | 2.1 ± 0.14 | 2.11 ± 0.14
CCCC(=O)CC [3-hexanone] + CCCCCC[n+]1ccc2ccccc2c1.N#C[S-] |  |  | 2.86 ± 0.19 | 2.88 ± 0.2 | 2.89 ± 0.2 | 2.9 ± 0.2 | 2.91 ± 0.2
C=CCCC [1-pentene] + CCCCCC[n+]1ccc2ccccc2c1.N#C[S-] | 18.4 ± 1.3 | 16.2 ± 1.1 | 14.5 ± 1 | 12.9 ± 0.9 | 11.7 ± 0.8 | 10.7 ± 0.7 | 9.6 ± 0.7
Cc1ccccc1C [1,2-dimethylbenzene] + CCCCCC[n+]1ccc2ccccc2c1.N#C[S-] |  |  | 2.35 ± 0.16 | 2.37 ± 0.16 | 2.41 ± 0.16 | 2.43 ± 0.17 | 2.45 ± 0.17
CCOC(C)(C)C [2-ethoxy-2-methylpropane] + CCCCCC[n+]1ccc2ccccc2c1.N#C[S-] | 20.6 ± 1.4 | 18.6 ± 1.3 | 17.2 ± 1.2 | 15.7 ± 1.1 | 14.7 ± 1 | 13.8 ± 0.9 | 12.8 ± 0.9
CCCCC(C)=O [2-hexanone] + CCCCCC[n+]1ccc2ccccc2c1.N#C[S-] |  |  | 2.62 ± 0.18 | 2.63 ± 0.18 | 2.64 ± 0.18 | 2.65 ± 0.18 | 2.65 ± 0.18

Continued, values first:

activity coefficient (308.15 K) | activity coefficient (318.15 K) | activity coefficient (328.15 K) | activity coefficient (338.15 K) | activity coefficient (348.15 K) | activity coefficient (358.15 K) | activity coefficient (368.15 K) | Compound
18.8 ± 1.3 | 17.5 ± 1.2 | 16.5 ± 1.1 | 15.4 ± 1.1 | 14.5 ± 1 | 13.7 ± 0.9 | 12.9 ± 0.9 | C1CCCCCCC1 [cyclooctane] + CCCCCC[n+]1ccc2ccccc2c1.N#C[S-]
 |  | 0.693 ± 0.047 | 0.681 ± 0.046 | 0.671 ± 0.045 | 0.664 ± 0.045 | 0.653 ± 0.045 | CCCO [propan-1-ol] + CCCCCC[n+]1ccc2ccccc2c1.N#C[S-]
14.7 ± 1 | 13.4 ± 0.9 | 12.3 ± 0.8 | 11.5 ± 0.8 | 10.8 ± 0.7 | 10.2 ± 0.7 | 9.6 ± 0.65 | C1CCCC1 [cyclopentane] + CCCCCC[n+]1ccc2ccccc2c1.N#C[S-]
24.2 ± 1.7 | 21.5 ± 1.5 | 19.8 ± 1.4 | 17.7 ± 1.2 | 16.4 ± 1.1 | 15.2 ± 1 | 14 ± 1 | CC1CCCCC1 [methylcyclohexane] + CCCCCC[n+]1ccc2ccccc2c1.N#C[S-]
 |  | 0.921 ± 0.058 | 0.943 ± 0.059 | 0.963 ± 0.061 | 0.98 ± 0.06 | 0.998 ± 0.062 | c1ccsc1 [thiophene] + CCCCCC[n+]1ccc2ccccc2c1.N#C[S-]
64.1 ± 4.4 | 58 ± 4 | 53.3 ± 3.7 | 48.3 ± 3.3 | 45.7 ± 3.1 | 42.1 ± 2.9 | 38.6 ± 2.6 | CCCCCCCC [octane] + CCCCCC[n+]1ccc2ccccc2c1.N#C[S-]
